SMILES strings stand for the structures. Values joined by “and” are separate entries in the source; they are usually repeats but may differ in a detail not shown here. Identical values can stand only once.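 Growth conditions: 96-well plates. Treatment: test compound, 48 hours, 5 concentrations. Analysis: linear interpolation between bracketing concentrations; unreached endpoints set to highest concentration. GI50: concentration for 50% inhibition of growth. TGI marks complete inhibition of growth.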

Test in all cases: NCI anticancer screen, dose series, 48 h
For test [1], the system named is A549 NSCLC.
The subject of test [2] is ACHN renal.
The subject of test [3] is CAKI-1 renal.
The test system of test [4] is COLO 205 colon.
The test system of test [5] is HCT-116 colon.
In test [6] the test system is M14 melanoma.
Test [7] deals with MOLT-4 leukemia.
Test [8] relates to NCI-H23 lung.
The subject of test [9] is PC-3 prostate.
Test [10] deals with SK-MEL-28 melanoma.

Take `CC1OC(n2cc(F)c(=O)[nH]c2=O)CCC1O` (configuration not stated): the TGI in [1], in test [2], in [3], in test [4], in test [5] and in test [6] was greater than 100 µM each time. Further, the TGI in [7], in [8], in [9] and in test [10] was greater than 100 µM throughout.

With `N#C/C(=C1C=C/C(=N/O)C(Br)=C/1)c1ccccc1`, the GI50 is 3.48 µM in test [1]; 1.89 µM in [2]; 0.7 µM in [3]; 6.89 µM in test [4]; 0.362 µM in [5]; 3.79 µM in test [6]. Besides, the GI50 is 2.93 µM in [7], 5.26 µM in [8], 0.568 µM in [9] and 10.3 µM in [10]. For the same molecule, the TGI was greater than 100 µM in test [1]; 14.7 µM in test [2]; 12.7 µM in test [3]; 54.7 µM in test [4]; 2.13 µM in test [5]; 20 µM in test [6]. Further, the TGI was 11.5 µM in test [7], 96.8 µM in [8], 6.33 µM in test [9] and 31.1 µM in test [10].

For `Cn1c(N2NC(=O)C(N=Nc3ccc(S(N)(=O)=O)cc3)C2=O)nc(-c2ccco2)c(C#N)c1=O` (configuration not stated), the GI50 in test [1] is greater than 50 µM; in test [2], 15.6 µM; in [3], 11.9 µM; in [4] it was 3.18 µM; in [5] it was 15.4 µM; in test [6], 21.9 µM. Further, the GI50 is 9.27 µM in test [7], 12.8 µM in test [8], 23.2 µM in [9] and 11.7 µM in test [10]. Further, the TGI in test [1] is greater than 50 µM; in test [2], greater than 50 µM; in test [3], greater than 50 µM; in [4], 11.8 µM; in [5], greater than 50 µM; in test [6], greater than 50 µM. Further, the TGI was 27.8 µM in test [7], greater than 50 µM in test [8], greater than 50 µM in test [9] and 45.5 µM in test [10].

`CCOC(=O)CCc1cc(=O)oc2cc(O)cc(O)c12`: the TGI in test [1], in [2], in test [3], in test [4], in test [5] and in test [6] was greater than 100 µM in each case. For the same molecule, the TGI in test [7], in [8], in test [9] and in [10] was greater than 100 µM in each case.

Take `CC[CH2][Pb]([CH2]CC)([CH2]CC)[O]C(=O)C(F)(F)F`: the GI50 in test [1] is 0.172 µM; in test [2] it was 0.149 µM; in test [3] it was 0.16 µM; in test [4], 0.164 µM; in test [5] it was 0.0798 µM; in test [6], 0.0911 µM. Further, the GI50 in test [7] is 0.183 µM; in test [9] it was 0.122 µM; in test [10] it was 0.124 µM. Besides, the TGI in [1] came out at 0.563 µM; in test [2], 0.458 µM; in [3] it was 0.501 µM; in test [4] it was 0.374 µM; in [5], 0.262 µM; in [6] it was 0.33 µM. The TGI in [7] came to 0.627 µM; in [9], 0.294 µM; in [10] it was 0.452 µM.

Turning to `CN(C)CCC(=O)N1C/C(=C/c2ccccc2)C(=O)/C(=C\c2ccccc2)C1`, the TGI in test [1] came to 13.5 µM; in test [2], 5.5 µM; in [3], 7.02 µM; in test [4], 5.77 µM; in test [5], 1.15 µM; in [6], 6.53 µM. In addition, the TGI in test [7] was 1.46 µM; in [8], 6.76 µM; in test [9] it was 4.2 µM; in [10], 5.18 µM.

For `C=C(CN1CCc2ccccc2C1)c1ccc(C(=O)Nc2cnccn2)cc1`, the GI50 is 31 µM in test [1]; 30.8 µM in test [2]; 7.77 µM in test [3]; 17.5 µM in test [4]; 16.6 µM in [5]; 5.82 µM in test [7]. Besides, the GI50 was 18.4 µM in [8], 1.86 µM in [9] and 25.4 µM in test [10]. In addition, the TGI in [1] was greater than 100 µM; in test [2], greater than 100 µM; in test [3] it was greater than 100 µM; in [4], 40.1 µM; in [5], 68 µM; in test [7] it was greater than 100 µM. Moreover, the TGI in test [8], in test [9] and in [10] was greater than 100 µM in each case.

Regarding `COc1cccc(-c2cc(=O)c3cc(N(C)C)ccc3[nH]2)c1`, the TGI in [1] is greater than 100 µM; in test [2] it was > 100 µM and 51.9 µM; in test [4], 0.0875 µM and 0.0317 µM; in test [6] it was greater than 100 µM; in test [7] it was 0.0401 µM and 0.0259 µM; in test [9], greater than 100 µM. In addition, the TGI in test [10] is greater than 100 µM. The GI50 in [2] is 0.0892 µM and 0.011 µM; in test [4] it was 0.0283 µM and 0.0125 µM; in test [5], 0.0155 µM and 0.00433 µM; in [6], 0.0234 µM and 0.00682 µM; in test [7], 0.0435 µM and 0.00642 µM; in test [9] it was 0.0275 µM and 0.00806 µM. Also, in [10], the GI50 was 0.0209 µM and 0.00582 µM.

Turning to `CCNCCNc1cc(-c2ccc(C(=O)OC)cc2)c(C#N)c2nc3ccccc3n12`, the GI50 is 1.46 µM in [1]; 1.66 µM in test [2]; 2.92 µM in test [3]; 0.623 µM in test [4]; 0.758 µM in [5]; 1.58 µM in test [6]. Also, the GI50 is 3.82 µM in [8], 5.28 µM in test [9] and 1.72 µM in test [10]. For the same molecule, the TGI is 5.01 µM in [1]; 3.3 µM in [2]; greater than 100 µM in test [3]; 2.24 µM in test [4]; 2.09 µM in test [5]; 3.23 µM in [6]. The TGI in test [8] is greater than 100 µM; in test [9], greater than 100 µM; in test [10] it was 3.45 µM.

Regarding `Cn1cc(-c2cnc3ccc(NC(=O)Nc4ccc(F)c(Br)c4)cc3n2)cn1`, the GI50 was 1.77 µM in test [1]; 1.81 µM in [2]; 2.05 µM in test [3]; 1.59 µM in test [4]; 1.87 µM in test [5]; 1.57 µM in test [6]. Further, the GI50 in [8] was 1.75 µM; in test [9] it was 1.44 µM; in test [10] it was 1.9 µM. In addition, the TGI was 4.85 µM in test [1]; 4.31 µM in test [2]; 5.57 µM in [3]; 3.24 µM in [4]; 3.75 µM in test [5]; 3.14 µM in test [6]. Further, the TGI came out at 3.91 µM in test [8], 3.62 µM in test [9] and 3.76 µM in test [10].

Consider `Cc1ccc(-c2c3c([nH]c(=O)c2C#N)-c2cc(F)ccc2OC3)cc1`, for which the GI50 in test [1] is 55 µM; in test [2] it was greater than 100 µM; in test [3] it was 82.1 µM; in test [4], greater than 100 µM; in [6] it was 29.9 µM; in test [7], 97.5 µM. Moreover, the GI50 in [9] is 88.7 µM; in test [10], greater than 100 µM. Besides, the TGI in test [1], in test [2], in [3], in test [4], in [6] and in [7] was greater than 100 µM each time. The TGI in test [9] and in [10] was greater than 100 µM throughout.

As for `O=C1c2cccc(NCCN=Cc3cc(O)ccc3O)c2C(=O)c2c(NCCN=Cc3cc(O)ccc3O)cccc21`, the GI50 in test [1] is 1.51 µM; in test [2], 2.05 µM; in [4] it was 0.495 µM; in test [6], 2.01 µM; in [7] it was 0.319 µM; in test [8], 1.44 µM. The results for the GI50 in test [9] and in test [10] were 1.17 µM and 1.77 µM, respectively. The TGI in test [1] was 4.24 µM; in test [2], 8.93 µM; in test [4], 1.94 µM; in test [6] it was 4.59 µM; in [7] it was 1.46 µM; in test [8] it was 3.49 µM. Further, the TGI was 3.97 µM in test [9] and 3.66 µM in [10].

For the molecule `O=C1c2c(c3c4ccccc4n(CCCCCCBr)c3c3[nH]c4ccccc4c23)C(=O)N1O`, the GI50 in test [1] was 3.31 µM; in test [2] it was 2.61 µM; in test [3], 2.86 µM; in [4] it was 1.97 µM; in [5] it was 2.15 µM; in test [6], 2.07 µM. The GI50 in test [7] was 1.94 µM; in test [8], 2.23 µM; in test [10] it was 2.95 µM. Moreover, the TGI in test [1] was 12.1 µM; in test [2], 11.1 µM; in test [3], 9.5 µM; in [4], 4.7 µM; in [5], 10.8 µM; in test [6], 7.68 µM. In addition, the TGI in [7] was found to be 5.68 µM; in test [8], 7.09 µM; in [10], 15.7 µM.

For the molecule `COC(=O)C[C@H]1CCC2(OCCO2)[C@]1(C)C(=O)OC`, the TGI in test [1], in [2], in test [3], in test [4], in test [5] and in test [6] was greater than 100 µM each time. Besides, the TGI in test [7], in test [8] and in [10] was greater than 100 µM in each case.

Regarding `Cc1ccc(CS/C(=C\c2ccc([N+](=O)[O-])cc2)C(=O)c2ccc(F)cc2)cc1`, the GI50 in test [1] was 49.1 µM; in [2], 1.73 µM; in [4], 3.72 µM; in [6], 3.07 µM; in [7] it was 3.35 µM; in test [8] it was 4.78 µM. The results for the GI50 in [9] and in test [10] were 2.36 µM and 5.46 µM, respectively. In addition, the TGI was greater than 100 µM in test [1]; 3.1 µM in test [2]; 16.6 µM in [4]; 15.6 µM in [6]; greater than 100 µM in test [7]; 41 µM in test [8]. For the same molecule, the TGI in [9] turned out to be 6.2 µM; in test [10], 26.5 µM.

Consider `COC(=O)c1cc2c3ccccc3[nH]c2c2ncccc12`, for which the GI50 in test [1] was 75.1 µM; in [2], 11.2 µM; in test [3] it was 8.12 µM; in test [4] it was greater than 100 µM; in test [5] it was 54.9 µM; in test [7], greater than 100 µM. The GI50 was 27.2 µM in test [8], greater than 100 µM in test [9] and 85.8 µM in [10]. In addition, the TGI in test [1], in test [2], in [3], in test [4], in test [5] and in test [7] was greater than 100 µM throughout. For the same molecule, the TGI in test [8], in test [9] and in test [10] was greater than 100 µM throughout.

`COc1cc(/C=C/c2cc(/C=C/c3ccc(O)c(OC)c3)n(-c3ccccc3)n2)ccc1O`: the GI50 in [1] is 0.405 µM; in test [3], 0.33 µM; in test [4], 1.77 µM; in test [7], 0.347 µM; in test [8] it was 0.197 µM; in test [9], 0.332 µM. Besides, in test [10], the GI50 was 0.386 µM. For the same molecule, the TGI in [1] was 2.16 µM; in test [3], 7.26 µM; in [4], 3.31 µM; in test [7], greater than 100 µM; in [8] it was 2 µM; in test [9] it was 12.7 µM. This molecule also came in with a TGI in test [10] of 2.72 µM.

In the case of `Cc1ccc(C)c(NC(=O)CC/C(=N\NC(=O)C(=O)NN)C(C)C(=O)c2ccc(O)cc2)c1` (configuration not stated), the TGI in test [1], in [2], in [3], in test [4], in test [5] and in test [6] was greater than 100 µM throughout. In addition, the TGI in [7], in [8] and in [10] was greater than 100 µM throughout.
